This note sets out measurements from US20040097555A1, “Concomitant drugs” (priority 2000, published 2004).

The target of one data set is T1, human p38 MAP kinase (Homo sapiens, UniProt Q16539).
T1 construct: FLAG (N); made in house; host or cells: Sf-21 insect cells, baculovirus (BAC-HP38 co-infected with BAC-caMKK3)
Kind of data set: Measurement of the enzyme inhibitory activity of active form p38 MAP kinase (32P uptake into Myelin Basic Protein), Reference Example C1. The data set is classed as biochemical. To be noted: concentration inhibiting uptake of 32P into acid insoluble fraction (Myelin Basic Protein) by 50%, Table 45. How it is done:
(1) Cloning of Human p38 MAP Kinase Gene and Preparation of Recombinant Baculovirus
Cloning of human p38 MAP kinase gene was performed by a PCR method using a primer set P38-U: 5′-[…]-3′ [SEQ ID NO:1] and PAG-L: 5′-[…]-3′ [SEQ ID NO:2] made by the use of kidney cDNA (Toyobo, QUICK-Clone cDNA) as a template and referring to the base sequence of p38 MAP kinase gene reported by Han et al. (Science 265 (5173), 808-811 (1994)).
(2) Cloning of Human MKK3 Gene and Preparation of Recombinant Baculovirus
(3) Preparation of Active Form p38 MAP Kinase
The Sf-21 cells were seeded on 100 mL Sf-900II SFM medium (GIBCOBRL) to 1×10^6 cells/mL and cultured at 27° C. for 24 hours. After each 0.2 mL of the virusstock BAC-HP38 and BAC-caMKK3 of recombinant baculovirus were added, the culturing was further performed for 48 hours. After the cells were separated from the culturing solution by centrifugation (3000 rpm, 10 min), the cells were washed twice with PBS. After the cells were suspended in 10 ml Lysis buffer (25 mM HEPES (pH 7.5), 1% Triton X, […], 1 mM EDTA, 1 mM DTT, 25 mM β-glycerophosphate, […], 1 mM APMSF, 1 mM Sodium orthovanadate), the cells were lysed by treating twice in a homogenizer (POLYTRON) at 20000 rpm for 2 minutes. From the supernatant obtained by centrifugation (40000 rpm, 45 minutes), active form p38 MAP kinase was purified using Anti-FLAG M2 Affinity Gel (Eastman Chemical).
(4) Measurement of the Enzyme Inhibitory Activity
2.5 μL of a test compound dissolved in DMSO was added to 37.5 μL reaction solution (25 mM HEPES (pH 7.5), 10 mM Magnesium Acetate) containing 260 ng active form p38 MAP kinase and 1 μg Myelin Basic Protein, which was maintained at 30° C. for 5 minutes. The reaction was initiated by adding […] ATP solution (2.5 μM ATP, 0.1 μCi [g-^32P]ATP). After the reaction was performed at 30° C. for 60 minutes, the reaction was stopped by adding 50 μL 20% TCA solution. After the reaction solution was allowed to stand at 0° C. for 20 minutes, an acid insoluble fraction was transferred to GF/C filter (Packard Japan) using Cell Harvester (Packard Japan) and washed with 250 mM H3PO4. After drying at 45° C. for 60 minutes, 40 μL Microscint 0 (Packard Japan) was added and the radioactivity was measured with a TopCount (Packard Japan). The concentration (IC50 value) of the test compound necessary for inhibiting uptake of ^32P into an acid insoluble fraction by 50% was calculated with PRISM 2.01 (Graphpad Software).

The subject of data set [1] is TNF-α production in THP-1 cells. In words: Measurement of inhibiting activity of TNF-α production in LPS-stimulated THP-1 cells (ELISA), Experimental Example C2. The format is cell-based. To be noted: Homo sapiens, concentration inhibiting TNF-α production by 50%, LPS 5 μg/mL, 4 hour, Table 46. On the procedure:
(§1) Measurement of inhibiting activity of TNF-α production
After THP-1 cells which had been cultured on PRMI 1640 medium (manufactured by Life Technologies, Inc.) containing 1% inactivated bovine fetal serum (manufactured by Life Technologies, Inc., U.S.A.) and 10 mM HEPES (pH 7.5) seeded on a 96-well plate to 1×10^5 cells/well, 1 μL test compound dissolved in DMSO was added. After incubation at 37° C. for 1 hour in a CO2 incubator, LPS (Wako Pure Chemicals) was added to the final concentration 5 μg/mL. After cultured at 37° C. for 4 hour in a CO2 incubator, the supernatant was obtained by centrifugation. The concentration of TNF-α in the supernatant was measured by ELISA (R&D Systems, Quantikine Kit). The concentration (IC50 value) of the test compound necessary for inhibiting TNF-α production by 50% was calculated using PRIMS 2.01 (Graphpad Software).

For data set [2] the test system is unchanged. In words: Measurement of inhibiting activity of TNF-α production in LPS-stimulated THP-1 cells (ELISA), Reference Example F3. The data set is classed as cell-based. To be noted: Homo sapiens, LPS 5 μg/mL, 4 hours, read-out: IC50 (concentration necessary for inhibiting TNF-α production by 50%). On the procedure:
as §1
After THP-1 cells which had been cultured in PRMI 1640 medium (manufactured by Life Technologies, Inc.) containing 1% non-activated bovine fetal serum (manufactured by Life Technologies, Inc., U.S.A.) and 10 mM HEPES (pH 7.5) seeded on a 96-well plate to 1×10^5 cells/well, 1 μL test compound dissolved in DMSO was added to there. After incubation at 37° C. for 1 hour in a CO2 incubator, LPS (Wako Pure Chemicals) was added to the final concentration 5 μg/mL. After cultured at 37° C. for 4 hours in a CO2 incubator, the supernatant was obtained by centrifugation. The concentration of TNF-α in the supernatant was measured with ELISA (R&D System, Quantikine Kit). The concentration (IC50 value) necessary for inhibiting TNF-α production by 50% was calculated by PRIMS 2.01 (Graphpad Software).

T1 sequence (Q16539 whole entry): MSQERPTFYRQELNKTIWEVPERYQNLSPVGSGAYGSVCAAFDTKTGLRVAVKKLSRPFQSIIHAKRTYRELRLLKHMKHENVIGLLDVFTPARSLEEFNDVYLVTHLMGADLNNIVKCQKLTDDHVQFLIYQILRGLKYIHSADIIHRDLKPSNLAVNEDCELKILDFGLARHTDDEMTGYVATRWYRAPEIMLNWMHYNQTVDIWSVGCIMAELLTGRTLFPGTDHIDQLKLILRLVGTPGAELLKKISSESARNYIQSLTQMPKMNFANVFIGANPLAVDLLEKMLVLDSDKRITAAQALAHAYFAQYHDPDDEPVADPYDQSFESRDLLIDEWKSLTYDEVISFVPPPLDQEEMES

On to `COc1ccc(-c2nc(N)sc2-c2cccnc2)cc1.Cl`, for which the melting point (usually the temperature of the solid-liquid transition) fell in the range of 145 to 150 °C. On human p38 MAP kinase, `COc1ccc(-c2nc(N)sc2-c2ccncc2)cc1` [13-14, [4-(4-methoxyphenyl)-5-(4-pyridyl)-1,3-thiazol-2-yl]amine] returned an IC50 of 86 nM. On human p38 MAP kinase, `Nc1nc(-c2ccccc2)c(-c2ccncc2)s1` [13-15, [4-phenyl-5-(4-pyridyl)-1,3-thiazol-2-yl]amine] came in with an IC50 of 81 nM. Same read-out and setting: next, `CNc1nc(-c2ccc(OC)cc2)c(-c2ccncc2)s1` [13-16, N-methyl [4-(4-methoxyphenyl)-5-(4-pyridyl)-1,3-thiazol-2-yl]amine]: 60 nM; `CNc1nc(-c2ccc(Cl)cc2)c(-c2ccncc2)s1` [13-70, N-methyl [4-(4-chlorophenyl)-5-(4-pyridyl)-1,3-thiazol-2-yl]amine]: 26 nM. For the compound `Cc1cccc(-c2nc(N)sc2-c2ccncc2)c1` [23-60, [4-(3-methylphenyl)-5-(4-pyridyl)-1,3-thiazol-2-yl]amine], in data set [1], the IC50 worked out at 46 nM.

Compound `Fc1ccc(-c2nc(-c3ccccc3)sc2-c2ccncc2)cc1` [44-1, 4-(4-fluorophenyl)-2-phenyl-5-(4-pyridyl)-1,3-thiazole] had a melting point of 135 to 137 °C. In the case of `COc1ccc(-c2nc(N)sc2-c2cccnc2)cc1` [Reference Example A 8, [4-(4-methoxyphenyl)-5-(3-pyridyl)-1,3-thiazol-2-yl]amine], the melting point is 265 to 266 °C. Same read-out and setting: next, `CNc1nc(-c2ccc(OC)cc2)c(-c2cccnc2)s1` [Reference Example A 9, N-methyl [4-(4-methoxyphenyl)-5-(3-pyridyl)-1,3-thiazol-2-yl]amine]: 158 to 159 °C; `Cc1cccc(-c2nc(-c3ccc(S(C)(=O)=O)cc3)sc2-c2ccnc(S(=O)(=O)c3ccccc3)c2)c1` [Reference Example D 28, 4-(3-methylphenyl)-2-(4-methylsulfonylphenyl)-5-(2-phenylsulfonyl-4-pyridyl)-1,3-thiazole]: 90 to 91 °C. For `Cc1cc(C)cc(-c2nc(N)sc2-c2ccnc(NC(=O)c3ccccc3)c2)c1` [compound 5], in data set [2], the IC50 was 20 nM.
